Measurements taken from patent publication US9775354B2, “Herbicidal composition having improved plant safety” (priority 2013, dated 2017).

Assays:
Type in all cases: in vivo
[1] = system: kentucky bluegrass (Poa pratensis L.); experiment: Test Example 6: chlorosis in kentucky bluegrass after foliar treatment (pot test); conditions: compound A 100 g/ha, compound B not added; seventh day after treatment; degree 0 to 5.0
Description: Degree of chlorosis=0 (equal to the non-treated area) to 5.0 (complete chlorosis)
(§1) Upland field soil was put into a 1/1,000,000 ha pot, and seeds of kentucky bluegrass (Poa pratensis L.) were sown. When the kentucky bluegrass reached 2-leaf stage, predetermined amounts of compound A and isoxadifen-ethyl, mefenpyr-diethyl or cloquintocet-mexyl were diluted with water (in an amount corresponding to 300 L/ha) containing 0.5 vol % of an agricultural adjuvant (tradename: Destiny HC, manufactured by Winfield Solutions, LLC) and applied for foliar treatment by a small sprayer.
On the seventh day after treatment, chlorosis which developed in the kentucky bluegrass was evaluated in the same manner as in the above Test Example 2.

[2] = system: timothy (Phleum pratense L.); experiment: Test Example 4: growth inhibition of timothy after foliar treatment (pot test); conditions: compound A 100 g/ha, compound B not added; sixth day after treatment
Description: (§2) On the seventh day after treatment, the state of growth of the wheat was visually observed to determine the growth inhibition rate (%) in accordance with the following evaluation standards. The results are shown in Table 1. • Growth inhibition rate (%)=0 (equivalent to the non-treated area) to 100 (complete kill)
as §1, with “timothy (Phleum pratense” for “kentucky bluegrass (Poa pratensis”, “timothy” for “kentucky bluegrass”, “1.6 to 2.0-leaf” for “2-leaf”
On the sixth day after treatment, the state of growth of the timothy was visually observed to evaluate the growth inhibition rate (%) in the same manner as in the above Test Example 1.

[3] = system: wheat (Triticum aestivum L.); experiment: Test Example 1: growth inhibition of wheat after foliar treatment (pot test); conditions: compound B not added, seventh day after treatment
Description: Upland field soil was put into a 1/1,000,000 ha pot, and seeds of wheat (Triticum aestivum L.) were sown. […] Destiny HC, manufactured by Winfield Solutions, LLC.) and applied for foliar treatment by a small sprayer. On the seventh day after treatment, the state of growth of the wheat was visually observed to determine the growth inhibition rate (%) in accordance with the following evaluation standards.

[4] = system: perennial ryegrass (Lolium perenne L.); experiment: Test Example 3: chlorosis in perennial ryegrass after foliar treatment (pot test); conditions: compound A 100 g/ha, compound B not added; sixth day after treatment; degree 0 to 5.0
Description: Degree of chlorosis=0 (equal to the non-treated area) to 5.0 (complete chlorosis) Upland field soil was put into a 1/1,000,000 ha pot, and seeds of perennial ryegrass (Lolium perenne L.) were sown. […] Destiny HC, manufactured by Winfield Solutions, LLC.) and applied for foliar treatment by a small sprayer.

[5] = system: bentgrass (Agrostis stolonifera L.); experiment: Test Example 5: growth inhibition of bentgrass after foliar treatment (pot test); conditions: compound A 100 g/ha, compound B not added; 24th day after treatment
Description: as §2
as §1, with “turf” for “seeds”, “bentgrass (Agrostis stolonifera” for “kentucky bluegrass (Poa pratensis”, “was put.” for “were sown.”, “bentgrass” for “kentucky bluegrass”, “a height of […],” for “2-leaf stage,”, “and” for “and isoxadifen-ethyl,”
On the 24th day after treatment, the state of growth of the bentgrass was visually observed to determine the growth inhibition rate (%) in the same manner as in the above Test Example 1.

SMILES: CCn1ncc(C(=O)c2ccc(S(C)(=O)=O)c(OCCOC)c2C)c1OC(C)OC(=O)OC (stereo not drawn) [Compound A, 1-(1-ethyl-4-(3-(2-methoxyethoxy)-2-methyl-4-(methylsulfonyl)benzoyl)-1H-pyrazol-5-yloxy)ethyl methyl carbonate]
- Chlorosis in kentucky bluegrass [1]: 1.7
- Growth inhibition rate (%) of timothy [2]: 10%
- Growth inhibition rate (%) of wheat ([3]; compound A 100 g/ha): 40%
- Growth inhibition rate (%) of wheat ([3]; compound A 150 g/ha): 40%
- Chlorosis in perennial ryegrass [4]: 0.4
- Growth inhibition of bentgrass (%) [5]: 50%
